The values that follow come from patent US8716250B2, “Diazoxide for the treatment of Friedreich's ataxia” (Universita' Degli Studi di Bari, priority 2008, dated 2014).

“Also recorded” adds a separate entry of the source.

Assay [1] concerns frataxin. Briefly: Quantitative real-time RT-PCR of frataxin expression in HEK 293 cells. It counts as cell-based, human. The protocol:
The human cell line HEK 293 (Human Embryonic Kidney) grown in Dulbecco's modified Eagle's medium (DMEM, Sigma) with the addition of 10% foetal bovine serum (FBS) (v/v), glutamine 2 mM, penicillin 100 unit/ml and streptomycin 100 μg/ml is kept in an incubator at a temperature of 37° C. and 5% CO2. Preferably the HEK 293 cells, cultured on 60 mm plates at a concentration of 0.5×10^6, after at least 14 hours of growth have a 70-80% confluence. […] Extraction of the RNA from the cells is performed according to the indications contained in the QIAconnect Gene Expression (Qiagen) kit. Particularly the samples are lysed and homogenated. Ethanol is then added to the treated samples to provide ideal conditions for the bond with the silica-gel RNase membrane. In this way the RNA binds and the contaminants are washed; the pure RNA is concentrated and eluted. The concentration of the extracted RNA is determined by UV spectrophotometric method under suitable reading conditions. The reverse transcription reaction is performed with the GeneAmp RNA PCR core (Applied Biosystems) kit according to the indications provided by the manufacturer. Quantification of the reverse-transcribed product is performed using fluorescent probes capable of hybridizing and specifically pairing DNA regions of interest. The probes used according to the invention are Probe Hs 00175940_m1 and Probe Hs 99999903 ml (Applied Biosystems). Particularly the probe defined Hs 00175940_m1 represents the specific probe able to recognise and hybridize the human frataxin gene, while the probe Hs 99999903 ml recognises the human actin and is useful for normalising the mRNA values of the target. The analyzing step of the results is performed by substituting the mathematical formula 2^−ΔΔCt with the difference between the target threshold cycle in the samples treated and not treated (control) with diazoxide, normalised with the threshold cycle value of the reference gene (actin), in the case in question ΔCt=Ct Hs00175940—m1−Ct Hs99999903—m1. ΔΔCt=ΔCt(treated sample)−ΔCt(control sample) The result of the calculation 2^−ΔΔCt represents the relative quantification value. Said value permits determination of the quantity of frataxin (which represents the target) in the sample treated with diazoxide with respect to the quantity of frataxin in the sample not treated with diazoxide (which represents the control) normalised for the quantity of actin (which represents the reference or internal standard) in the same sample. For example a value of 1 is attributed to the control samples, i.e. HEK 293 cells not treated with diazoxide chosen as references.
For orientation: In qPCR the cycle at which signal appears reflects the starting amount.

The subject of assay [2] is frataxin. The experiment in a line: Western blot analysis of frataxin in HEK 293 cells. Particulars: for frataxin expression, western blot: 4 or 5 days after the initial treatment. It counts as cell-based, human. The protocol: The human cell line HEK 293 (Human Embryonic Kidney) grown in Dulbecco's modified Eagle's medium (DMEM, Sigma) with the addition of 10% foetal bovine serum (FBS) (v/v), glutamine 2 mM, penicillin 100 unit/ml and streptomycin 100 μg/ml is kept in an incubator at a temperature of 37° C. and 5% CO2. Preferably the HEK 293 cells, cultured on 60 mm plates at a concentration of 0.5×10^6, after at least 14 hours of growth have a 70-80% confluence. […] The cells treated as described in example 1 are lysed with a lysis buffer (0.15 M NaCl, 5 mM EDTA, pH 8, 1% Triton X100, 10 mM Tris-Cl, pH 7.4) and transferred to microcentrifuge tubes. A quantity of approximately 50 μg of cell suspension is separated by electrophoresis in the presence of SDS (sodium dodecyl sulphate) at 17% (denaturing conditions). The resulting product is transferred onto nitrocellulose membranes. Identification of the presence of the target protein, i.e. the frataxin, is performed with a rabbit polyclonal primary antibody directed against said protein (Santa Cruz Biotechnology), and a goat-anti rabbit HRP secondary antibody (Pierce). The reaction was identified with enzymatic method by means of ECL plus system (Amersham).
A general note: In western blotting, separated proteins are transferred to a membrane and probed.

The subject of assay [3] is frataxin. Briefly: Quantitative real-time RT-PCR of frataxin expression in immortalized lymphoblastoid cell lines of FRDA patients. Type of assay: cell-based, human. Particulars: FRDA patient lymphoblastoid cells, 24 hours. As for the experimental part: Extraction of the RNA from the cells is performed according to the indications contained in the QIAconnect Gene Expression (Qiagen) kit. Particularly the samples are lysed and homogenated. Ethanol is then added to the treated samples to provide ideal conditions for the bond with the silica-gel RNase membrane. In this way the RNA binds and the contaminants are washed; the pure RNA is concentrated and eluted. The concentration of the extracted RNA is determined by UV spectrophotometric method under suitable reading conditions. The reverse transcription reaction is performed with the GeneAmp RNA PCR core (Applied Biosystems) kit according to the indications provided by the manufacturer. Quantification of the reverse-transcribed product is performed using fluorescent probes capable of hybridizing and specifically pairing DNA regions of interest. The probes used according to the invention are Probe Hs 00175940_m1 and Probe Hs 99999903 ml (Applied Biosystems). Particularly the probe defined Hs 00175940_m1 represents the specific probe able to recognise and hybridize the human frataxin gene, while the probe Hs 99999903 ml recognises the human actin and is useful for normalising the mRNA values of the target. The analyzing step of the results is performed by substituting the mathematical formula 2^−ΔΔCt with the difference between the target threshold cycle in the samples treated and not treated (control) with diazoxide, normalised with the threshold cycle value of the reference gene (actin), in the case in question ΔCt=Ct Hs00175940—m1−Ct Hs99999903—m1. ΔΔCt=ΔCt(treated sample)−ΔCt(control sample) The result of the calculation 2^−ΔΔCt represents the relative quantification value. Said value permits determination of the quantity of frataxin (which represents the target) in the sample treated with diazoxide with respect to the quantity of frataxin in the sample not treated with diazoxide (which represents the control) normalised for the quantity of actin (which represents the reference or internal standard) in the same sample. The expression level and therefore the quantity of frataxin of cells deriving from immortalized lymphoblastoid cell lines of FRDA patients treated as described in examples 2 and 3 was compared 24 hours after the treatment. […] In particular, the broken vertical line represents the threshold value above which the increase in frataxin expression can be seen. The experiment was conducted testing the cells with concentrations of diazoxide varying from 25 nM to 100 μM in combination with fixed concentrations of glucose 20 mM. The expression and therefore the quantity of frataxin in cells deriving from immortalized lymphoblastoid cell lines of FRDA patients was compared.

Assay [4] deals with frataxin. Briefly: Western blot analysis of frataxin in cells of FRDA patients. Type of assay: cell-based, human. Particulars: FRDA patient cells, 24 hours after the initial treatment. The protocol:
The cells treated as described in example 1 are lysed with a lysis buffer (0.15 M NaCl, 5 mM EDTA, pH 8, 1% Triton X100, 10 mM Tris-Cl, pH 7.4) and transferred to microcentrifuge tubes. A quantity of approximately 50 μg of cell suspension is separated by electrophoresis in the presence of SDS (sodium dodecyl sulphate) at 17% (denaturing conditions). The resulting product is transferred onto nitrocellulose membranes. Identification of the presence of the target protein, i.e. the frataxin, is performed with a rabbit polyclonal primary antibody directed against said protein (Santa Cruz Biotechnology), and a goat-anti rabbit HRP secondary antibody (Pierce). The reaction was identified with enzymatic method by means of ECL plus system (Amersham). […] It can be seen that the cells of the patients treated according to the invention present an evident band as expression of the quantity of frataxin present with respect to the non-treated control.

The conditions of assay [5]: children treated with ibedenone; cited from earlier work.
Setting [6] is: diazoxide in combination with glucose.
Setting [7] is: diazoxide in combination with leucine.

For the compound `CC1=NS(=O)(=O)c2cc(Cl)ccc2N1` [diazoxide, 7-chloro-3-methyl-4H-1,2,4 benzothiadiazine 1,1-dioxide], the “frataxin expression levels, deviation from the threshold line” value in assay [1] (HEK 293, diazoxide 100 μM combined with leucine 10 mM, 24 hours) was “significant deviation from the threshold line”; in assay [1] (HEK 293, diazoxide only (25 nM or 100 μM without glucose), 24 hours), “minimum deviation from the threshold line”; in assay [3] (diazoxide 100 μM combined with glucose 20 mM) it was “significant deviation from the threshold line”; in assay [3] (some particular concentrations of diazoxide (25 nM to 100 μM tested) with glucose 20 mM), “minimum deviation from the threshold line”. Also, the “increase in the quantity of frataxin with respect to the non-treated control over time” value in assay [1] (HEK 293, diazoxide 100 μM together with glucose 20 mM, 48 and 72 hours after the treatment) is “remains constant”. Further, the “quantity of frataxin / frataxin expression with respect to the non-treated control” value in assay [1] (HEK 293, diazoxide 100 μM with glucose 20 mM, 24 hours) was “increased quantity of frataxin; also recorded: significant deviation from the threshold line”. Further, the “frataxin quantity (band intensity) versus control cells” value in assay [2] (HEK 293, cells treated as in example 1 (diazoxide 100 μM with glucose 20 mM, 24 hours)) is “greater than that of the control cells”. Moreover, the “frataxin expression, western blot” value in assay [2] (setting [6]) and in assay [2] (setting [7]) was “maintain the increase in expression” in each case. The “effect on frataxin expression of the combination” value in assay [3] (setting [6]) and in assay [3] (setting [7]) was “synergic effect” throughout. Moreover, the “frataxin expression, western blot, with respect to the non-treated control” value in assay [4] (setting [6]) and in assay [4] (setting [7]) was “maintain the increase in expression” in each case.

For the compound `COC1=C(OC)C(=O)C(CCCCCCCCCCO)=C(C)C1=O` [ibedenone], in assay [5], the “benefits at neurological level” value was “practically nil” and the “children treated presenting an improvement in some of the symptoms” value was 85%.

For `CC(C)C[C@H](N)C(=O)O` [leucine], the “frataxin expression levels, deviation with respect to the non-treated control” value in assay [1] (HEK 293, leucine only 10 mM, 24 hours) is on record as “minimum deviation with respect to the non-treated control”.
